pEC50: −log10 of the molar value.
Target: T1, human mGluR7 (Homo sapiens, UniProt Q14831)
T1 construct: expressed in transfected cells
Assay: mGluR7 assay: CRE-directed luciferase reporter gene assay, reduction of forskolin stimulated cAMP production
Format: cell-based
Settings: stable CHO cell line expressing the CRE-luc reporter and human mGluR7 genes; decrease of forskolin stimulated luminescence; 10-point concentration-response, duplicate wells
Experimental: The ability of the test compounds to activate mGluR7 was determined by their ability to reduce forskolin stimulated cAMP production. Compounds were assessed in a CRE-directed luciferase reporter gene assay, using a stable CHO cell line expressing the CRE-luc reporter and human mGluR7 genes. In this cell line, production of cAMP stimulated the transcription of the luciferase gene and luciferase activity was then measured in a luminescent enzyme assay (Steady Glo assay; Promega E2550). Activation of mGluR7 decreased the forskolin stimulated luminescence signal.
The day prior to the assay, compounds were serially diluted in DMSO (100× final assay concentration (FAC)), in 384-well plates which were then stored in the dark at room temperature (RT) until use. Cells were seeded at 12.5 k/well in white, clear bottom 384-well plates (Corning 3707) and left for one hour at RT followed by an overnight incubation (37° C.). The following day, the DMSO compound plate was diluted 1:20 (5× FAC) in Opti-MEM I (Life Technologies 11058021). The growth media was removed from the cell plate and replaced with 15 μl Opti-MEM I, followed by a 5 μl addition from the 5× compound plate and a fifteen minute incubation (37° C.). Forskolin (Sigma F3917) was then added to the wells (5 μl of 2.5 μM) and the plate was incubated for five hours (37° C.). During this incubation, the Steady Glo Substrate reagent was warmed to 37° C. Aliquots (11 ml; stored at −20° C.) of this reagent were prepared by dissolving the contents of 1 vial of lyophilised substrate in 100 ml Steady-Glo buffer. A 25 μl addition of the substrate was made to all wells and the plate was incubated for thirty minutes at RT, on a plate shaker (300 rpm; in the dark). Luminescence was then measured using the EnVision Multilabel Reader (Perkin Elmer).
Compound activity was examined using a 10-point, half log concentration-response range and each concentration was tested in duplicate wells. Luminescence values were normalised to ‘maximum’ (forskolin alone) and ‘minimum’ (forskolin in the presence of tool mGluR7 agonist) controls.

T1 sequence (Q14831 35-915): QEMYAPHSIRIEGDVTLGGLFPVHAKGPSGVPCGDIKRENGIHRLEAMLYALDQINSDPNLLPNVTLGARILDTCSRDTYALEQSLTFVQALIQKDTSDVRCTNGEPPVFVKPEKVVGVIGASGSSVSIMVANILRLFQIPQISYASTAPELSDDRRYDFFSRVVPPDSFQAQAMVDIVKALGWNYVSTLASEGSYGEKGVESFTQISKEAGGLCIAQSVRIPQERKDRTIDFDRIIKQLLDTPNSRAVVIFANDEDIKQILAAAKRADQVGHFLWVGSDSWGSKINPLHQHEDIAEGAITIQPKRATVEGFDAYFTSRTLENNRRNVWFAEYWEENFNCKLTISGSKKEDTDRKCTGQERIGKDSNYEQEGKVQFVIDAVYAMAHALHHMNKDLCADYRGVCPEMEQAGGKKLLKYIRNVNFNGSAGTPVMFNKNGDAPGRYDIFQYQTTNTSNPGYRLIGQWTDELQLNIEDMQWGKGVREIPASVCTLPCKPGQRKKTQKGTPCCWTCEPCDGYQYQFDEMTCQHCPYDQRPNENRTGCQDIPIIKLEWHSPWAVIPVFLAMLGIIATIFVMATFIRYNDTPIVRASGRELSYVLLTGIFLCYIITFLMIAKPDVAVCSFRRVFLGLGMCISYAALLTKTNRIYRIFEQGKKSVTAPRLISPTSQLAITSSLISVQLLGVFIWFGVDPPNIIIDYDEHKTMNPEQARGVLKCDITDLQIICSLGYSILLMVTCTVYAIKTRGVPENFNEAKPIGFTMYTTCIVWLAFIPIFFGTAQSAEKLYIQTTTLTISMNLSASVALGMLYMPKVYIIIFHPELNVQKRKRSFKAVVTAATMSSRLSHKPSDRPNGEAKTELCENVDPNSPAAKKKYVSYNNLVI

| Compound | pEC50 |
| --- | --- |
| N[C@H]1c2ccccc2C[C@@H]1NC(=O)C(c1ccc(F)cc1)C1CC1 (single isomer, unassigned) [Example 97] | 6.09 |
| N[C@H]1c2ccccc2C[C@@H]1NC(=O)C(c1ccc(F)cc1F)N1CC(F)C1 (single isomer, unassigned) [Example 106] | 7.09 |
| N[C@H]1c2ccccc2C[C@@H]1NC(=O)C(c1ccc(F)cc1F)N1CC(F)C1 (single isomer, unassigned) [Example 107] | 5.92 |
| N[C@H]1c2ccccc2C[C@@H]1NC(=O)C(c1ccc(F)cc1F)n1ncccc1=O (single isomer, unassigned) [Example 109] | 6.24 |
| N[C@H]1c2ccccc2C[C@@H]1NC(=O)C(c1ccc(F)cc1F)n1ncccc1=O (single isomer, unassigned) [Example 110] | 5.94 |
| N[C@H]1c2ccccc2C[C@@H]1NC(=O)C(c1ccc(F)cc1)N1CC(F)C1 (single isomer, unassigned) [Example 115] | 6.74 |
| N[C@H]1c2ccccc2C[C@@H]1NC(=O)C(c1ccc(F)cc1)N1CC(F)C1 (single isomer, unassigned) [Example 116] | 6.62 |
| N[C@H]1c2ccccc2C[C@@H]1NC(=O)C(c1ccc(F)cc1)N1CC(F)C1 (single isomer, unassigned) [Example 118] | 5.54 |
| COC1c2ccccc2CC1NC(=O)C(c1ccc(F)cc1F)n1ncccc1=O (single isomer, unassigned) [Example 124, 2-(2,4-difluorophenyl)-N-(trans)-(1-methoxy-2,3-dihydro-1H-inden-2-yl)-2-(6-oxo-1,6-dihydropyridazin-1-yl)acetamide] | 5.98 |
| COC1c2ccccc2CC1NC(=O)C(c1ccc(F)cc1F)n1ncccc1=O (single isomer, unassigned) [Example 125, 2-(2,4-difluorophenyl)-N-(trans)-(1-methoxy-2,3-dihydro-1H-inden-2-yl)-2-(6-oxo-1,6-dihydropyridazin-1-yl)acetamide] | 5.97 |
| COC1c2ccccc2CC1NC(=O)C(c1ccc(F)cc1F)n1ncccc1=O (single isomer, unassigned) [Example 126, 2-(2,4-difluorophenyl)-N-(trans)-(1-methoxy-2,3-dihydro-1H-inden-2-yl)-2-(6-oxo-1,6-dihydropyridazin-1-yl)acetamide] | 6.55 |
| COC1c2ccccc2CC1NC(=O)C(c1ccc(F)cc1F)n1ncccc1=O (single isomer, unassigned) [Example 127, 2-(2,4-difluorophenyl)-N-(trans)-(1-methoxy-2,3-dihydro-1H-inden-2-yl)-2-(6-oxo-1,6-dihydropyridazin-1-yl)acetamide] | 7.09 |
| COC1c2ccccc2CC1NC(=O)C(c1ccc(F)cc1)n1ncccc1=O (single isomer, unassigned) [Example 128, 2-(4-fluorophenyl)-N-(trans)-(1-methoxy-2,3-dihydro-1H-inden-2-yl)-2-(6-oxo-1,6-dihydropyridazin-1-yl)acetamide] | 5.88 |
| COC1c2ccccc2CC1NC(=O)C(c1ccc(F)cc1)n1ncccc1=O (single isomer, unassigned) [Example 129, 2-(4-fluorophenyl)-N-(trans)-(1-methoxy-2,3-dihydro-1H-inden-2-yl)-2-(6-oxo-1,6-dihydropyridazin-1-yl)acetamide] | 5.41 |
| COC1c2ccccc2CC1NC(=O)C(c1ccc(F)cc1)n1ncccc1=O (single isomer, unassigned) [Example 130, 2-(4-fluorophenyl)-N-(trans)-(1-methoxy-2,3-dihydro-1H-inden-2-yl)-2-(6-oxo-1,6-dihydropyridazin-1-yl)acetamide] | 6.83 |
| COC1c2ccccc2CC1NC(=O)C(c1ccc(F)cc1)n1ncccc1=O (single isomer, unassigned) [Example 131, 2-(4-fluorophenyl)-N-(trans)-(1-methoxy-2,3-dihydro-1H-inden-2-yl)-2-(6-oxo-1,6-dihydropyridazin-1-yl)acetamide] | 7.05 |
| COC1c2ccccc2CC1NC(=O)C(c1ccc(F)cc1F)N1CC(F)C1 (single isomer, unassigned) [Example 136, 2-(2,4-difluorophenyl)-2-(3-fluoroazetidin-1-yl)-N-(trans)-(1-methoxy-2,3-dihydro-1H-inden-2-yl)acetamide] | 5.70 |
| COC1c2ccccc2CC1NC(=O)C(c1ccc(F)cc1F)N1CC(F)C1 (single isomer, unassigned) [Example 137, 2-(2,4-difluorophenyl)-2-(3-fluoroazetidin-1-yl)-N-(trans)-(1-methoxy-2,3-dihydro-1H-inden-2-yl)acetamide] | 6.13 |
| COC1c2ccccc2CC1NC(=O)C(c1ccc(F)cc1)N1CC(F)C1 (single isomer, unassigned) [Example 140, 2-(4-fluorophenyl)-2-(3-fluoroazetidin-1-yl)-N-(trans)-(1-methoxy-2,3-dihydro-1H-inden-2-yl)acetamide] | 5.90 |
| COC1c2ccccc2CC1NC(=O)C(c1ccc(F)cc1)N1CC(F)C1 (single isomer, unassigned) [Example 142, 2-(4-fluorophenyl)-2-(3-fluoroazetidin-1-yl)-N-(trans)-(1-methoxy-2,3-dihydro-1H-inden-2-yl)acetamide] | 7.21 |
| COC1c2ccccc2CC1NC(=O)C(c1ccc(F)cc1)N1CC(F)C1 (single isomer, unassigned) [Example 143, 2-(4-fluorophenyl)-2-(3-fluoroazetidin-1-yl)-N-(trans)-(1-methoxy-2,3-dihydro-1H-inden-2-yl)acetamide] | 5.90 |
| COC1c2ccccc2CC1NC(=O)[C@H](NC(=O)C1CC1)c1ccc(F)cc1 (single isomer, unassigned) [Example 144] | 6.72 |

Continued by rising pEC50, values first:

| pEC50 | Compound |
| --- | --- |
| 7.21 | COC1c2ccccc2CC1NC(=O)C(c1ccc(F)cc1F)N1CC(F)C1 (single isomer, unassigned) [Example 139, 2-(2,4-difluorophenyl)-2-(3-fluoroazetidin-1-yl)-N-(trans)-(1-methoxy-2,3-dihydro-1H-inden-2-yl)acetamide] |
| 7.25 | CO[C@H](C(=O)NC1Cc2ccccc2C1S(C)(=O)=O)c1ccccc1 (single isomer, unassigned) [Example 158] |
| 7.27 | N[C@H]1c2ccccc2C[C@@H]1NC(=O)C(c1ccc(F)cc1)C1CC1 (single isomer, unassigned) [Example 96] |
| 7.41 | COC1c2ccccc2CC1NC(=O)C(c1ccc(F)cc1)N1CC(F)C1 (single isomer, unassigned) [Example 141, 2-(4-fluorophenyl)-2-(3-fluoroazetidin-1-yl)-N-(trans)-(1-methoxy-2,3-dihydro-1H-inden-2-yl)acetamide] |
| 7.41 | CS(=O)(=O)C1c2ccccc2CC1NC(=O)C(OCC1CC1)c1ccccc1 (single isomer, unassigned) [Example 147, 2-(cyclopropylmethoxy)-N-(trans)-(1-methanesulfonyl-2,3-dihydro-1H-inden-2-yl)-2-phenylacetamide] |
| 7.60 | CO[C@H](C(=O)NC1Cc2ccccc2C1S(C)(=O)=O)c1ccccc1 (single isomer, unassigned) [Example 159] |
| 7.80 | CS(=O)(=O)C1c2ccccc2CC1NC(=O)C(OCC1CC1)c1ccccc1 (single isomer, unassigned) [Example 148, 2-(cyclopropylmethoxy)-N-(trans)-(1-methanesulfonyl-2,3-dihydro-1H-inden-2-yl)-2-phenylacetamide] |
| 7.85 | COC1c2ccccc2CC1NC(=O)C(c1ccc(F)cc1F)N1CC(F)C1 (single isomer, unassigned) [Example 138, 2-(2,4-difluorophenyl)-2-(3-fluoroazetidin-1-yl)-N-(trans)-(1-methoxy-2,3-dihydro-1H-inden-2-yl)acetamide] |
| 8.00 | N[C@H]1c2ccccc2C[C@@H]1NC(=O)C(c1ccc(F)cc1)N1CC(F)C1 (single isomer, unassigned) [Example 117] |
| 8.22 | COC1c2ccccc2CC1NC(=O)[C@@H](NC(=O)C1CC1)c1ccc(F)cc1 (single isomer, unassigned) [Example 101] |
| 8.22 | COC1c2ccccc2CC1NC(=O)[C@@H](NC(=O)C1CC1)c1ccc(F)cc1 (single isomer, unassigned) [Example 102] |
| 8.40 | CS(=O)(=O)C1c2ccccc2CC1NC(=O)C(OCC1CC1)c1ccccc1 (single isomer, unassigned) [Example 146, 2-(cyclopropylmethoxy)-N-(trans)-(1-methanesulfonyl-2,3-dihydro-1H-inden-2-yl)-2-phenylacetamide] |
| 9.22 | CS(=O)(=O)C1c2ccccc2CC1NC(=O)C(OCC1CC1)c1ccccc1 (single isomer, unassigned) [Example 145, 2-(cyclopropylmethoxy)-N-(trans)-(1-methanesulfonyl-2,3-dihydro-1H-inden-2-yl)-2-phenylacetamide] |

— patent US20190031599A1, “INDANE DERIVATIVES AS MGLUR7 MODULATORS” (Takeda Pharmaceutical Company Limited, priority 2016, published 2019)
